These results are taken from patent US11365227B2, “Peptide and pharmaceutical compositions of same for use as an antimicrobial and in cancer treatment” (UNIVERSITAT DE VALÈNCIA, priority 2017, dated 2022).

Structures are written as SMILES. Where a SMILES comes first, the peptide text is derived from it.

Data set [1] has as its system MDA-MB-231 tumour cells. As to the kind of experiment: Cell cycle analysis by flow cytometry (CycleTEST PLUS, ModFit LT). In kind it is cell-based, human. The conditions noted are these: 100 μg/mL, 72 h. How it is done:
The MDA-MB-231 cells were cultured in dishes with 6 wells with a density of 5×10^4 cells per well, in which 200 μL or 400 μL of PaSK were added (final concentrations 100 μg/mL and 200 μg/mL) or the same volume of the medium (solvent used to dilute the peptide) in the corresponding controls. The cells were incubated at 37° C. for 72 h.
For the cell line analysis, the CycleTEST™ PLUS DNA Reagent Kit (Sigma-Aldrich) was used. Two washes were carried out using citrate buffer (containing sodium citrate, saccharose and dimethyl sulphoxide (DMSO)), centrifuging the samples in each one at 300×g for 5 min, and one final wash was performed in which the number of cells was adjusted to 5×10^5 and centrifuged at 400×g for 5 min, and then adding 250 μL of solution A (containing trypsin in a detergent buffer with spermine tetrahydrochloride), 200 μL of solution B (containing an inhibitor of trypsin and ribonuclease A, in a stabilising buffer of citrate with spermine tetrahydrochloride) and 200 μL of solution C (includes PI and the stabilising buffer with spermine tetrahydrochloride), leaving between the addition of each solution an interval of 10 min at room temperature and performing the last one, before filtering, in a cold chamber and in the dark. The analyses of cell death produced by the peptide and of the stage of cell cycle of the cells were performed with the equipment BD Facs Verse (Becton Dickinson). The cell cycle modelling was performed with the software Modfit LT, version 3.3.11. The experiments were performed in duplicate.
In this example, the cytotoxic and antiproliferative activity of the peptide PaSK is assessed by flow cytometry, performing an analysis of cell viability and an analysis of the cell cycle. After treatment of the tumour cells MDA-MB-231 with 200 μg/mL (cell viability experiments) and 100 μg/mL (analysis of cell cycle) of PaSK the percentage of viable cells was determined, as well as the stage of the cell cycle in which proliferation was stopped.
On the technique in general: A flow cytometer gives signals particle by particle.

A short description of data set [2]: Cell viability MTS assay, cytotoxic effect. The format is cell-based. The settings on record: mouse, HC-11 normal mammary epithelial cells, approximately 200 μM (700 μg/mL), 0.5% bovine foetal serum. On the procedure:
Cell viability was determined by the MTS method. The MDA-MB-231 cells cultured in plates with 96 wells at 37° C. in an atmosphere humidified with 10% CO2 to a density of 5×10^3 cells/well were incubated with different concentrations of the peptide PaSK for 24 h. Then 20 μL were added of the solution MTS/PMS (3-(4,5-dimethylthiazol-2-yl)-5-(3-carboxymethoxyfenyl)-2-(4-sulphophenyl)-2H-tetrazole/phenazine methosulphate) to each well and after incubating for 2 h in the dark the absorbance at 490 nm was read in a plate reader. The percentage reduction in number of cells was calculated according to the formula (1−E/C)×100, where E is the absorbance of the cells treated with the peptide and C is the absorbance of the samples of the control cells.
The cytotoxic effect of the peptide PaSK has been studied in two cell lines of triple-negative breast cancer cells, one human (MDA-MB-231) and one mouse (4T1), and a line of normal mouse mammary epithelial cells (HC-11). To this end, a cell viability MTS assay was performed, based on the use of a compound derived from tetrazolium that is reduced in live cells to form a soluble coloured product. […]
(Tetrazolium assays rely on reduction of a dye to a coloured formazan, in cell work by metabolically active cells.)

Data set [3] relates to S. aureus. The data set is described as follows: Antimicrobial activity by flow cytometry (SYBR Green / propidium iodide). The format is cell-based, Staphylococcus aureus subsp. aureus CECT 4013. How it is done:
The strain used was CECT 4013 of S. aureus subsp. aureus, publicly accessible deposited in the Spanish Type Culture Collection (CECT).
Starting from cells of S. aureus cultured overnight in a liquid medium LB (peptone 1%, yeast extract 0.5% and NaCl 1%) at 37° C. with stirring, aliquots were obtained in a new liquid medium and allowed to grow until reaching an optical density at 600 nm (OD600) of 0.5, optimum for detection in the flow cytometer. Aliquots were prepared with a concentration of 5×10^6 cfu/100 μL of S. aureus to which were added 10, 15, 20 and 25 μg/mL of PaSK, 25 μg/mL of TcDef3-pep and H2O (negative control), solvent used to dilute the peptides. The mixtures were incubated at 37° C. for 8 h and marked with the fluorochromes SYBR Green (Invitrogen) (25 μL of a SYBR Green 25× solution in H2O) that stains all the cells and propidium iodide (Sigma) (10 μL of propidium iodide 1 mg/mL) that stains dead cells. Finally, the cell death caused by the peptides was analysed by flow cytometry with the equipment BD Facs Verse (Becton Dickinson), from the cell culture and flow cytometry section of the Central Services for Research Support of the University of Valencia. The experiments were performed in duplicate.
The flow cytometer forces cells to pass one by one through a needle, creating a thin line of liquid and detecting how the laser beam (argon emission laser at 488 nm, in the equipment used) interacts with the cells, depending on how the incident light is deviated and the fluorescence emitted by the excited fluorochromes. The results are presented as graphs obtained with the analysis program BD Facs suite v1.0.5.3841 (Becton Dickinson). […] Then, a second graph is obtained with the parameters SSC and FITC (fluorescence parameter indicating the cells containing SYBR Green), to differentiate the cells from the other particles that may be present in the sample. Lastly, a third graph is obtained with the fluorescence parameters FITC and PerCPCy5.5 (indicating the cells stained with propidium iodide) to differentiate the cells that have been stained only by SYBR Green from those stained with propidium iodide, which will be those that have died.
The antimicrobial activity of the peptide PaSK was determined by flow cytometry. […] Therefore, the use of these two fluorochromes provides a method for determining viable cells, quantifying the loss of cell viability from the increase in propidium iodide inside the dead cells.
After incubating the cells of strain CECT 4013 of S. aureus with 25 μg/mL of the peptides TcDef3-pep and PaSK, the percentage of dead cells was determined. […] FIGS. 1A-1D show the graphs corresponding to the fluorescence obtained in the windows of the flow cytometer.

`CC[C@H](C)[C@H](NC(=O)[C@H](CCCNC(=N)N)NC(=O)[C@H](CCCNC(=N)N)NC(=O)[C@H](CCCCN)NC(=O)[C@H](CC(N)=O)NC(=O)[C@H](CS)NC(=O)[C@H](Cc1ccc(O)cc1)NC(=O)CNC(=O)CNC(=O)[C@H](CCCNC(=N)N)NC(=O)[C@H](CCCCN)NC(=O)[C@H](CCCNC(=N)N)NC(=O)[C@H](CCCCN)NC(=O)[C@H](CC(C)C)NC(=O)[C@H](CC(C)C)NC(=O)[C@H](CS)NC(=O)[C@H](Cc1c[nH]cn1)NC(=O)[C@H](C)NC(=O)[C@H](C)NC(=O)[C@H](CS)NC(=O)[C@H](C)NC(=O)[C@H](C)NC(=O)[C@H](Cc1c[nH]cn1)NC(=O)[C@H](CC(N)=O)NC(=O)[C@@H](NC(=O)[C@@H](N)CCCCN)C(C)C)C(=O)N[C@@H](CS)C(=O)N[C@H](C(=O)N[C@@H](CS)C(=O)N[C@@H](CCCNC(=N)N)C(=O)N[C@@H](CC(N)=O)C(=O)O)C(C)C` [PaSK] (H-KVNHAACAAHCLLKRKRGGYCNKRRICVCRN-OH; N-terminus and C-terminus assumed): in data set [1], the “percentage of cells in stage G1” value came to 57.9%, the “percentage of cells in stage G2” value was determined as 9.0% and the “percentage of cells in stage S” value is on record as 33.2%. Also, in data set [2], the mortality at 24 h, 200 μM is about 50%. For the same molecule, the “percentage of cell death (cytotoxicity)” value in data set [3] (10 μg/mL, same conditions) is about 100%. Moreover, the “percentage of dead cells (cytotoxicity)” value in data set [3] (25 μg/mL, 8 h at 37° C., 2 replicates) is about 100%.

Usually mortality stands for the share of the test organisms that died. Lower therefore signals more survivors.
